Measured values as given in the supplement of paper PMC10307832.

Key:
[1] = compound: CC1=CC(=CC=C1)NC2=NC(=CS2)C3=CC=NC=C3 + CC(=O)Nc1cccc(-n2c(=O)n(C3CC3)c(=O)c3c(Nc4ccc(I)cc4F)n(C)c(=O)c(C)c32)c1 [Trametinib] (partner 0.02 µM); assay: relative viability (nuclei count vs DMSO), 5 days (fraction); higher = more cells survive
How it was run: (§1)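 The day after seeding in 1536-well plates, lung cancer cell lines were treated by pin tool with a single drug, or with a fixed anchor-drug dose together with five library-drug doses (not always all listed) in √10 steps. After 5 days, a combined fix-and-stain solution (final 0.05% Triton X-100, 1% formaldehyde, 1 ug/ml Hoechst) was added. Nuclei counted on 4× images gave relative viability as treated counts over vehicle counts, reported as the median of duplicate plates.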

Masitinib + Dasatinib = compound: Cc1ccc(NC(=O)c2ccc(CN3CCN(C)CC3)cc2)cc1Nc1nc(-c2cccnc2)cs1 [Masitinib] + Cc1nc(Nc2ncc(C(=O)Nc3c(C)cccc3Cl)s2)cc(N2CCN(CCO)CC2)n1 [Dasatinib] (partner 0.075 µM); assay: as above
How it was run: as §1

Row | Cell Line | relative viability ([1]; first compound 0.08 µM) | relative viability ([1]; first compound 0.253 µM) | relative viability ([1]; first compound 0.8 µM) | relative viability ([1]; first compound 2.53 µM) | relative viability ([1]; first compound 8 µM) | relative viability (Masitinib + Dasatinib; first compound 0.01 µM) | relative viability (Masitinib + Dasatinib; first compound 0.03162 µM) | relative viability (Masitinib + Dasatinib; first compound 0.1 µM) | relative viability (Masitinib + Dasatinib; first compound 0.3162 µM) | relative viability (Masitinib + Dasatinib; first compound 1 µM)
1 | HCC-44 | 0.939 | 0.847 | 0.701 | 0.687 | 0.695 |  |  |  |  | 
2 | HCC-827 | 0.497 | 0.529 | 0.564 | 0.542 | 0.53 | 0.269 | 0.286 | 0.275 | 0.314 | 0.293
3 | NCI-H1623 |  |  |  |  |  | 0.488 | 0.446 | 0.551 | 0.453 | 0.43
4 | NCI-H2405 | 0.566 | 0.571 | 0.591 |  | 0.552 | 0.2 | 0.214 | 0.213 | 0.238 | 0.193
5 | PC-3 [JPC-3] | 0.602 |  | 0.658 | 0.606 | 0.572 | 0.984 | 0.839 | 0.973 | 0.927 | 0.954
6 | NCI-H1666 | 0.578 | 0.728 | 0.684 | 0.523 | 0.6 |  | 0.713 | 0.858 | 0.818 | 0.817
7 | HARA | 0.561 | 0.742 | 0.734 | 0.447 | 0.629 |  | 0.289 | 0.283 | 0.152 | 0.258
8 | NCI-H1651 | 0.825 | 0.795 | 0.755 | 0.82 | 0.794 | 0.403 | 0.469 | 0.443 | 0.383 | 0.419
9 | NCI-H1395 | 0.939 |  | 0.964 | 0.724 | 0.898 | 0.415 | 0.404 | 0.404 | 0.395 | 0.426
10 | LU99A | 0.521 | 0.575 | 0.509 | 0.525 | 0.477 | 0.583 | 0.619 | 0.557 | 0.503 | 0.503
11 | LXF-289 | 0.639 | 0.674 | 0.648 | 0.739 | 0.606 | 0.223 | 0.206 | 0.238 | 0.202 | 0.207
12 | NCI-H1437 | 0.439 | 0.48 | 0.434 | 0.274 | 0.313 | 0.457 | 0.396 | 0.454 | 0.527 | 0.387
13 | HCC-78 | 0.505 | 0.666 | 0.617 | 0.563 | 0.753 | 0.468 | 0.312 | 0.392 | 0.468 | 0.366
14 | NCI-H1650 | 0.52 | 0.319 | 0.555 | 0.429 | 0.333 | 0.366 | 0.32 | 0.348 | 0.276 | 0.27
15 | HCC-15 | 0.369 | 0.383 | 0.373 | 0.348 | 0.343 | 0.516 | 0.617 | 0.68 | 0.512 | 0.59
16 | EKVX | 0.29 | 0.308 |  | 0.313 | 0.319 | 0.557 | 0.387 | 0.535 | 0.464 | 0.41

Row | Cell Line | relative viability ([1]; first compound 0.08 µM) | relative viability ([1]; first compound 0.253 µM) | relative viability ([1]; first compound 0.8 µM) | relative viability ([1]; first compound 2.53 µM) | relative viability ([1]; first compound 8 µM) | relative viability (Masitinib + Dasatinib; first compound 0.01 µM) | relative viability (Masitinib + Dasatinib; first compound 0.03162 µM) | relative viability (Masitinib + Dasatinib; first compound 0.1 µM) | relative viability (Masitinib + Dasatinib; first compound 0.3162 µM) | relative viability (Masitinib + Dasatinib; first compound 1 µM)
17 | NCI-H2126 | 0.509 | 0.528 | 0.426 | 0.476 | 0.485 | 0.681 | 0.537 | 0.653 | 0.369 | 0.525
18 | LK-2 | 0.817 | 0.806 | 0.951 | 0.772 | 1.33 | 0.336 | 0.243 | 0.289 | 0.306 | 0.263
19 | NCI-H1563 |  |  |  |  |  | 0.399 | 0.481 | 0.49 | 0.481 | 0.415
20 | COR-L23 | 0.44 | 0.598 | 0.59 | 0.568 | 0.567 | 0.411 | 0.419 | 0.531 | 0.437 | 0.543
21 | ABC-1 |  |  |  |  |  | 0.58 | 0.588 | 0.629 | 0.428 | 0.521
22 | SW 900 | 0.518 | 0.539 | 0.913 | 0.508 | 0.667 | 0.613 | 0.473 | 0.706 | 0.499 | 0.477
23 | PC-14 | 0.591 | 0.747 | 0.629 | 0.647 | 0.36 | 0.266 | 0.241 | 0.28 | 0.181 | 0.217
24 | NCI-H1648 | 0.353 | 0.569 | 0.444 | 0.471 | 0.588 |  |  |  |  | 
25 | A-427 | 0.572 | 0.716 | 0.714 | 0.719 | 0.624 |  | 0.726 |  | 0.802 | 0.695
26 | NCI-H1915 | 0.308 | 0.29 | 0.27 | 0.266 | 0.27 |  | 0.214 |  | 0.319 | 0.276
27 | LCLC-97TM1 | 0.185 | 0.214 | 0.157 | 0.178 | 0.185 |  | 0.961 | 0.903 | 0.943 | 0.84
28 | NCI-H1734 | 0.679 | 0.712 | 0.677 | 0.681 | 0.614 | 0.449 | 0.521 | 0.508 | 0.518 | 0.416
29 | LCLC-103H | 0.629 | 0.593 | 0.586 | 0.579 | 0.658 | 0.41 | 0.467 | 0.462 | 0.437 | 0.445
30 | RERF-LC-KJ | 0.953 | 0.734 | 0.735 | 0.703 | 0.645 | 0.881 | 0.806 | 0.975 | 0.667 | 0.702
31 | BEN | 0.82 | 1.16 | 0.99 | 0.994 | 0.898 | 0.341 |  | 0.271 | 0.308 | 0.281
32 | LC-2-ad | 0.862 | 0.881 | 0.826 | 0.839 | 0.8 | 0.47 | 0.587 | 0.639 | 0.523 | 0.554
